As usually defined, the IC50 is the concentration that gives 50% inhibition. The term AC50 denotes the concentration at which the activity in the assay is half-maximal.

Assay type in all cases: cell-based, human
Assay [1] deals with HTT mRNA. Put plainly: Splicing RT-qPCR gene panel, HTT canonical junction (CJ) mRNA. To be noted: Homo sapiens, Tables 4A/4B, read-out: HTT (IC50, decrease in CJ mRNA, gene panel). The gist of the method: (§1)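 Canonical-junction mRNA levels were quantified by RT-qPCR in lysates, using ΔΔCt against a housekeeping gene (GAPDH, GUSB or PPIA) and DMSO wells, expressed as percentage response. Cells (A673 or K562) had been exposed for 24 h at 37° C. to 11 three-fold compound concentrations up to 10 uM, DMSO ≤0.25%.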
A general note: Real-time PCR tracks product formation cycle by cycle.

Assay [2] deals with HTT mRNA. Description: Splicing RT-qPCR assay, HTT canonical (CJ) and alternative (AJ) junction mRNA. The note with it: Homo sapiens, A673 or K562 cells, 24 hours compound treatment; for IC50: 24 h, read-out: HTT CJ (IC50, decrease in canonical junction mRNA); for AC50: read-out: HTT AJ (AC50, increase in alternative junction mRNA). An outline of the steps: (§2)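 A673 or K562 cells were treated 24 h at 37 °C with an 11-point 3-fold compound dilution series (top 10 uM, DMSO ≤0.25%). Lysates went to one-step RT-qPCR measuring canonical (CJ) and alternative-exon (AJ) junction transcripts, normalized to GAPDH, GUSB or PPIA.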

Another assay has as its system Target C mRNA. Put plainly: Splicing RT-qPCR gene panel, Target C canonical junction (CJ) mRNA. To be noted: Homo sapiens, Tables 4A/4B, read-out: Target C (IC50, decrease in CJ mRNA, gene panel). The gist of the method:
as §1

The test system of the next assay is SMN2 mRNA. Put plainly: Splicing RT-qPCR gene panel, SMN2 canonical junction (CJ) mRNA. To be noted: Homo sapiens, Tables 4A/4B, read-out: SMN2 (IC50, decrease in CJ mRNA, gene panel). An outline of the steps: as §1
The subject of the next assay is MYB mRNA. Put plainly: Splicing RT-qPCR assay, MYB canonical (CJ) and alternative (AJ) junction mRNA. To be noted: Homo sapiens; for AC50: read-out: MYB AJ (AC50, increase in alternative junction mRNA). The gist of the method: as §2
The mark [3] stands for this setting: 24 h, A673 or K562 cells, 24 hours compound treatment, RT-qPCR.
Setting [4] is: 24 h, A673 or K562 cells, 24 hours compound treatment, RT-qPCR, read-out: MYB CJ (IC50, decrease in canonical junction mRNA).
Where [5] appears, read: Tables 4A/4B, canonical junction qPCR panel, read-out: MYB (IC50, decrease in CJ mRNA, gene panel).

Structures can show the parent of a compound that is named as a salt. Where two headings read alike, the source gives them in different places.

As for `Cc1c(O)c(NC(=O)c2ccc(N3CCNCC3)c3cn(C)nc23)cc2cn(C)nc12` [Compound 325, N-(6-hydroxy-2,7-dimethylindazol-5-yl)-2-methyl-4-(piperazin-1-yl) indazole-7-carboxamide hydrochloride], the IC50 is greater than 10 µM in the assay on HTT mRNA [1]; greater than 10 µM in the assay on HTT mRNA [2]; greater than 10 µM in the assay on Target C mRNA; less than 0.1 µM in the assay with SMN2 mRNA; 1 to 10 µM with MYB mRNA (setting [4]); 1 to 10 µM with MYB mRNA (setting [5]). Further, the results for the AC50 in the assay on HTT mRNA [2] and with MYB mRNA (setting [3]) were greater than 10 µM and 1 to 10 µM, respectively.

Take `Cc1cn2cc(NC(=O)c3ccc(N4C[C@@H](C)N[C@@H](C)C4)c4cn(C)nc34)cc(F)c2n1` [Compound 326, 4-[(3R,5S)-3,5-dimethylpiperazin-1-yl]-N-{8-fluoro-2-methylimidazo[1,2-a]pyridin-6-yl}-2-methylindazole-7-carboxamide]: the IC50 in the assay with HTT mRNA [1] was 0.1 to 1 µM; with HTT mRNA [2] it was 0.1 to 1 µM; in the assay with Target C mRNA it was 1 to 10 µM; in the assay with SMN2 mRNA it was less than 0.1 µM; with MYB mRNA (setting [4]), less than 0.1 µM; with MYB mRNA (setting [5]), less than 0.1 µM. For the same compound, the values for the AC50 in the assay on HTT mRNA [2] and in the assay with MYB mRNA (setting [3]) were 0.1 to 1 µM and less than 0.1 µM, respectively.

As to `Cc1cn2cc(NC(=O)c3ccc(N4CCC(CN)C4)c4cn(C)nc34)cc(F)c2n1` (stereo not shown) [Compound 327, 4-[3-(aminomethyl)pyrrolidin-1-yl]-N-{8-fluoro-2-methylimidazo[1,2-a]pyridin-6-yl}-2-methylindazole-7-carboxamide], the IC50 in the assay with HTT mRNA [1] is greater than 10 µM; in the assay on HTT mRNA [2] it was greater than 10 µM; with Target C mRNA, greater than 10 µM; in the assay with SMN2 mRNA, 0.1 to 1 µM; in the assay on MYB mRNA (setting [4]), 0.1 to 1 µM; in the assay with MYB mRNA (setting [5]) it was 0.1 to 1 µM. Further, the AC50 with HTT mRNA [2] is greater than 10 µM; in the assay with MYB mRNA (setting [3]), 0.1 to 1 µM.

Regarding `CC(=O)NC1CCN(c2ccc(C(=O)Nc3cc(F)c4nc(C)cn4c3)c3nn(C)cc23)CC1` [Compound 328, 4-(4-acetamidopiperidin-1-yl)-N-{8-fluoro-2-methylimidazo[1,2-a]pyridin-6-yl}-2-methylindazole-7-carboxamide], the IC50 was greater than 10 µM with HTT mRNA [1]; greater than 10 µM with HTT mRNA [2]; greater than 10 µM in the assay on Target C mRNA; 0.1 to 1 µM in the assay on SMN2 mRNA; 1 to 10 µM in the assay on MYB mRNA (setting [4]); 1 to 10 µM in the assay with MYB mRNA (setting [5]). For the same compound, the AC50 with HTT mRNA [2] and with MYB mRNA (setting [3]) was greater than 10 µM in each case.

As to `Cc1cn2cc(NC(=O)c3ccc(N4CCNCC4)c4cn(CC(O)CO)nc34)cc(F)c2n1` (stereo not shown) [Compound 329, 2-(2,3-dihydroxypropyl)-N-{8-fluoro-2-methylimidazo[1,2-a]pyridin-6-yl}-4-(piperazin-1-yl)indazole-7-carboxamide], the IC50 in the assay with HTT mRNA [1] was greater than 10 µM; in the assay on HTT mRNA [2], greater than 10 µM; in the assay with Target C mRNA it was greater than 10 µM; in the assay on SMN2 mRNA, 1 to 10 µM; with MYB mRNA (setting [4]) it was greater than 10 µM; in the assay with MYB mRNA (setting [5]) it was greater than 10 µM. Further, the AC50 in the assay on HTT mRNA [2] and with MYB mRNA (setting [3]) was greater than 10 µM in each case.

For `CCN(CC)C1CCN(c2ccc(C(=O)Nc3cc(F)c4nc(C)cn4c3)c3nn(CCOC)cc23)C1` (stereo not shown) [Compound 330, 4-(3-(diethylamino)pyrrolidin-1-yl)-N-(8-fluoro-2-methylimidazo[1,2-a]pyridin-6-yl)-2-(2-methoxyethyl)-2H-indazole-7-carboxamide compound with 2,2,2-trifluoro-113-ethan-1-one], the IC50 in the assay on HTT mRNA [1] was greater than 10 µM; in the assay on HTT mRNA [2], greater than 10 µM; in the assay on Target C mRNA it was greater than 10 µM; with SMN2 mRNA, less than 0.1 µM; in the assay on MYB mRNA (setting [4]), 0.1 to 1 µM; in the assay with MYB mRNA (setting [5]) it was 0.1 to 1 µM. For the same compound, the AC50 in the assay on HTT mRNA [2] was greater than 10 µM; in the assay with MYB mRNA (setting [3]) it was 0.1 to 1 µM.

Consider `Cc1nc2c(F)cc(NC(=O)c3ccc(N4CCNCC4)c4cn(C)nc34)cc2n1C` [Compound 332, N-(7-fluoro-2,3-dimethyl-1,3-benzodiazol-5-yl)-2-methyl-4-(piperazin-1-yl) indazole-7-carboxamide; trifluoroacetic acid], for which the IC50 in the assay with HTT mRNA [1], with HTT mRNA [2], in the assay on Target C mRNA, in the assay with SMN2 mRNA, in the assay with MYB mRNA (setting [4]) and in the assay on MYB mRNA (setting [5]) was greater than 10 µM in each case. Besides, the AC50 in the assay with HTT mRNA [2] and in the assay on MYB mRNA (setting [3]) was greater than 10 µM each time.

In the case of `Cc1cn2cc(NC(=O)c3ccc(N4CCNCC4)c4cn(C)nc34)c(F)cc2n1` [Compound 333, N-{7-fluoro-2-methylimidazo[1,2-a]pyridin-6-yl}-2-methyl-4-(piperazin-1-yl) indazole-7-carboxamide trifluoroacetate], the IC50 with HTT mRNA [1] was 1 to 10 µM; in the assay on HTT mRNA [2], 1 to 10 µM; with Target C mRNA it was greater than 10 µM; in the assay on SMN2 mRNA, less than 0.1 µM; with MYB mRNA (setting [4]), 0.1 to 1 µM; in the assay with MYB mRNA (setting [5]), 0.1 to 1 µM. Further, the AC50 with HTT mRNA [2] lay in the range of 1 to 10 µM; with MYB mRNA (setting [3]), 0.1 to 1 µM.

Regarding `Cc1cn2cc(NC(=O)c3ccc(N4C[C@@H](C)N[C@@H](C)C4)c4cn(C)nc34)nc(C)c2n1` [Compound 334, N-{2,8-dimethylimidazo[1,2-a]pyrazin-6-yl}-4-[(3R,5S)-3,5-dimethylpiperazin-1-yl]-2-methylindazole-7-carboxamide], the IC50 is greater than 10 µM in the assay on HTT mRNA [1]; greater than 10 µM with HTT mRNA [2]; greater than 10 µM in the assay on Target C mRNA; less than 0.1 µM in the assay on SMN2 mRNA; 0.1 to 1 µM in the assay with MYB mRNA (setting [4]); 0.1 to 1 µM with MYB mRNA (setting [5]). In addition, the AC50 in the assay with HTT mRNA [2] was greater than 10 µM; in the assay with MYB mRNA (setting [3]) it was 0.1 to 1 µM.

In the case of `Cc1cn2cc(NC(=O)c3ccc(N4CCC(CN)CC4)c4cn(C)nc34)cc(F)c2n1` [Compound 335, 4-[4-(aminomethyl)piperidin-1-yl]-N-{8-fluoro-2-methylimidazo[1,2-a]pyridin-6-yl}-2-methylindazole-7-carboxamide], the IC50 with HTT mRNA [1] was greater than 10 µM; in the assay with HTT mRNA [2] it was greater than 10 µM; in the assay on Target C mRNA, greater than 10 µM; with SMN2 mRNA, 0.1 to 1 µM; with MYB mRNA (setting [4]), 1 to 10 µM; in the assay on MYB mRNA (setting [5]), 1 to 10 µM. Further, the figures for the AC50 in the assay on HTT mRNA [2] and in the assay on MYB mRNA (setting [3]) were greater than 10 µM and 1 to 10 µM, respectively.

For `Cc1cn2cc(NC(=O)c3ccc(N4CCC(C)(N)CC4)c4cn(C)nc34)cc(F)c2n1` [Compound 336, 4-(4-amino-4-methylpiperidin-1-yl)-N-{8-fluoro-2-methylimidazo[1,2-a]pyridin-6-yl}-2-methylindazole-7-carboxamide], the IC50 was 0.1 to 1 µM in the assay with HTT mRNA [1]; 0.1 to 1 µM in the assay with HTT mRNA [2]; 0.1 to 1 µM in the assay on Target C mRNA; less than 0.1 µM with SMN2 mRNA; less than 0.1 µM with MYB mRNA (setting [4]); less than 0.1 µM in the assay on MYB mRNA (setting [5]). Moreover, the figures for the concentration at half-maximal activity (AC50) with HTT mRNA [2] and with MYB mRNA (setting [3]) were 0.1 to 1 µM and less than 0.1 µM, respectively.

Consider `Cc1cn2cc(NC(=O)c3ccc(N4CCNCC4)c4cn(CCCl)nc34)cc(F)c2n1` [Compound 337, 2-(2-chloroethyl)-N-{8-fluoro-2-methylimidazo[1,2-a]pyridin-6-yl}-4-(piperazin-1-yl)indazole-7-carboxamide], for which the IC50 with HTT mRNA [1] is 1 to 10 µM; with HTT mRNA [2], 1 to 10 µM; in the assay with Target C mRNA, greater than 10 µM; with SMN2 mRNA, less than 0.1 µM; in the assay with MYB mRNA (setting [4]), 0.1 to 1 µM; in the assay on MYB mRNA (setting [5]), 0.1 to 1 µM. The AC50 was 1 to 10 µM in the assay with HTT mRNA [2] and 0.1 to 1 µM in the assay on MYB mRNA (setting [3]).

As for `Cc1cn2cc(NC(=O)c3ccc(N4CCNCC4)c4cn(CC5CCO5)nc34)cc(F)c2n1` (stereo not shown) [Compound 338, N-{8-fluoro-2-methylimidazo[1,2-a]pyridin-6-yl}-2-(oxetan-2-ylmethyl)-4-(piperazin-1-yl)indazole-7-carboxamide], the IC50 was 1 to 10 µM in the assay with HTT mRNA [1]; 1 to 10 µM with HTT mRNA [2]; greater than 10 µM in the assay with Target C mRNA; less than 0.1 µM in the assay on SMN2 mRNA; 0.1 to 1 µM in the assay with MYB mRNA (setting [4]); 0.1 to 1 µM in the assay with MYB mRNA (setting [5]). Also, the AC50 in the assay on HTT mRNA [2] was 1 to 10 µM; in the assay with MYB mRNA (setting [3]), 0.1 to 1 µM.

`CC(=O)Cn1cc2c(N3CCNCC3)ccc(C(=O)Nc3cc(F)c4nc(C)cn4c3)c2n1` [Compound 339, N-{8-fluoro-2-methylimidazo[1,2-a]pyridin-6-yl}-2-(2-oxopropyl)-4-(piperazin-1-yl)indazole-7-carboxamide]: the IC50 with HTT mRNA [1] is greater than 10 µM; with HTT mRNA [2], greater than 10 µM; in the assay with Target C mRNA it was greater than 10 µM; with SMN2 mRNA, 0.1 to 1 µM; with MYB mRNA (setting [4]), 1 to 10 µM; in the assay with MYB mRNA (setting [5]) it was 1 to 10 µM. For the same compound, the AC50 with HTT mRNA [2] was greater than 10 µM; in the assay with MYB mRNA (setting [3]), 1 to 10 µM.

(Values after US20250154169A1, “COMPOUNDS AND METHODS FOR MODULATING SPLICING” (REMIX THERAPEUTICS INC., priority 2021, published 2025).)
